Data set [1] deals with E. coli. The data set is described as follows: Time-kill kinetics study. The note with it: 4 × MIC and 8 × MIC, TSB medium. In kind it is cell-based. On the procedure:
(§1) To evaluate how rapidly bacteria could be eradicated, the lead compound YW-1 was examined for its ability to eradicate MRSA and E. coli by studying the time-kill kinetics.
(§2) Different concentrations of YW-1 and ciprofloxacin were mixed with 300 μL of mid-log phase bacterial solution in TSB medium. The mixture was incubated for 0, 10, and 30 min and 1 and 2 h, respectively. At the time, E. coli were diluted 100-fold, and the MRSA was diluted 100-fold. A total of 100 μL of each was transferred on TSB agar plates. After 16 h at 37 °C, CFUs were read using the Biotec multimode microplate reader.

Data set [2] relates to MRSA. As to the kind of experiment: Drug resistance study (serial passages). The format is cell-based, methicillin-resistant Staphylococcus aureus. Conditions: after 14 generations. The procedure: Since the abuse of antibiotics, antibacterial drug resistance has become an increasingly serious threat. Thus, it is of great importance to assess the drug resistance of newly developed lead compounds.
The first generation of MIC data of YW-1 against MRSA and E. coli was already obtained in an MIC study. Then, the MRSA of the first generation in the well next to the last clear well was diluted to the mid-log phase, and MICs were tested at 37 °C. This step was repeated for 14 passages. The data of drug resistance for E. coli were obtained using the same method with bacterial E. coli.

For data set [3], the system named is MRSA. As to the kind of experiment: Membrane depolarization study (diSC35 dye). In kind it is cell-based, methicillin-resistant Staphylococcus aureus. An excerpt:
(§3) To probe the mechanism of antibacterial activity, we first carried out a membrane depolarization study with the membrane potential-sensitive dye 3,3′-dipropylthiadicarbocyanine iodide (diSC35) (Figure 2A,B). […] However, if the membrane is disrupted, and the fluorophore is released from the membrane, fluorescence will improve dramatically.

The test system of data set [4] is MRSA. As to the kind of experiment: Fluorescence microscopy (DAPI / PI staining). The note with it: 2 × MIC, 2 h at 37 °C, PI channel. The format is cell-based, methicillin-resistant Staphylococcus aureus. The procedure:
(§4) To further assess that the bacteria were killed with YW-1 by comprising the cell membrane, we conducted a fluorescence microscopy experiment. Two dyes, 4′,6-diamidino-2-phenylindole (DAPI) and propidium iodide (PI), were employed in this experiment. […] Instead, DAPI can be used to stain both dead and live cells because it is cell-permeable.
(§5) A total of 30 μL of mid-log phase bacterial solution was diluted to 3 mL in TSB medium with 2 × MIC of YW-1. The mixture was incubated for 2 h at 37 °C. Following this, the bacterial solution was centrifuged at 3000 rpm for 10 min. The top solution was thrown away, the bottom bacterial pellets were washed with PBS buffer, and PI (5 μg/mL) and DAPI (10 μg/mL) were added sequentially on ice under a dark environment. After dyeing with PI and DAPI, the bacterial cells were washed with PBS buffer. Immediately after 100 μL of PBS was added to suspend the bacterial cell, 10 μL of the suspended solution was dropped onto the slide, and data were obtained using a Zeiss Axiovert 200 inverted microscope.

Data set [5] deals with E. coli. The data set is described as follows: Fluorescence microscopy (DAPI / PI staining). In kind it is cell-based. The note with it: 2 × MIC, 2 h at 37 °C, PI channel. The procedure:
as §4, §5

Data set [6] deals with MRSA (ATCC 33591). In kind it is cell-based, methicillin-resistant Staphylococcus aureus. Conditions: ATCC 33591, 16 h. The procedure: (§6) Chemical reagents and solvents were bought from Sigma Aldrich, Oakwood, TCI, and Chem-Impex. Final products were purified with Waters Breeze 2 HPLC and lyophilized using Labconco lyophilizer. HPLC traces of the final product were collected using 5–95% acetonitrile in water with 0.1% HPLC-grade TFA for at least 40 min. The nuclear magnetic resonance (NMR) data were collected using the Agilent 600 MHz NEO instrument. High-resolution mass spectra of compounds (Table S1) were collected using an Agilent Technologies 6540 UHD accurate-mass Q-TOF LC/MS spectrometer. Antibacterial assays and mechanism of action studies were performed using a Biotec multimode microplate reader synergy H4. Six different species of bacteria were used for bacteria assay tests, such as MRSA (ATCC 33591), MRSE (RP62A), VREF (ATCC 700802), E. coli (ATCC 25922), K. pneumoniae (ATCC 13383), and P. aeruginosa (ATCC 27853).
(§7) Concisely, E. coli, K. pneumoniae, P. aeruginosa, MRSA, MRSE, and VREF were cultivated in 37 °C TSB medium for 16 h. Subsequently, 4 ml of new TSB medium was added to 100 μL of cultivated bacterial solution and incubated for another 6 h to reach the mid-log phase. Next, 96-well plates were injected with 50 μL of bacterial solution that reached mid-log phase and 50 μL of compounds with different concentrations, which ranged from 0.75–25 μg/mL. Then, the 96-wells plates were incubated for another 16 h at 37 °C. After 16 h, MICs were determined by a multimode microplate reader.

Data set [7] has as its system Human red blood cells. The data set is described as follows: Hemolytic activity. The note with it: HC50 over MIC against MRSA.
Method: (§10) Human red blood cells were washed with 1 × PBS buffer, then centrifuged at 700 g for 10 min. After discarding the top clear solution, the bottom cells were diluted to obtain 5% solution using 1 × PBS buffer.
(§11) Then, 50 μL of cell solution was injected into 96-well plates. Following this, 50 μL of synthesized compounds with different concentrations from 250 to 1.95 μg/mL were added into 96-well plates. Then, the mixture was incubated for 1 h at 37 °C. After centrifuging at 3500× g rpm for 10 min, 30 μL of the supernatant was transferred into a new 96-well plate with 100 μL of 1 × PBS buffer. With the same microplate reader, the data of absorbance at 540 nm were compared. Positive control: 2% Triton-100. Calculation formula: percentage of hemolysis = [(Absorbance of sample-Absorbance of PBS)/(Absorbance of Triton-Absorbance of PBS)] × 100
Data set [8] deals with MRSE (RP62A). The format is cell-based. Conditions: 16 h. The procedure: as §6, §7
The subject of data set [9] is E.F. (VREF, ATCC 700802). In kind it is cell-based. Conditions: ATCC 700802, 16 h. On the procedure: as §6, §7
Data set [10] relates to E. coli (ATCC 25922). In kind it is cell-based. Conditions: ATCC 25922, 16 h. The procedure:
as §6, §7

Data set [11] concerns K. pneumoniae (ATCC 13383). The format is cell-based. Conditions: ATCC 13383, 16 h. On the procedure: as §6, §7
For data set [12], the system named is P. aeruginosa (ATCC 27853). In kind it is cell-based. The note with it: ATCC 27853, 16 h. The procedure: as §6, §7
For data set [13], the system named is E. coli. As to the kind of experiment: Inner membrane (IM) permeabilization (ONPG hydrolysis assay). In kind it is cell-based. The note with it: 8 × MIC, 4 × MIC, 2 × MIC and 1 × MIC, 37 °C. On the procedure: We next used the o-nitrophenyl-β-d-galactopyranoside (ONPG) hydrolysis assay to test the ability of the lead compound YW-1 to permeabilize the inner membrane of Gram-negative bacteria (Figure 3B). If the lead compound YW-1 compromised the bacterial inner membrane, ONPG would interact with the cytoplasmic enzyme β-galactosidase to form o-nitrophenol, which can be measured under OD 420 nm.
Mid-log phase E. coli was obtained in Mueller Hinton Broth with 2% lactose at 37 °C; then, it was centrifuged at 3000× g rpm for 10 min at 4 °C and washed with 20 mM glucose and 1.5 mM ONPG in […] HEPES buffer one time. Next, the bacterial solution was diluted until OD600 = 0.1 using the same buffer. Following this, 50 μL of diluted bacterial solution was injected into a 96-well plate, and 50 μL of YW-1 in different concentrations and melittin were injected into the bacterial solution, respectively. The OD420 was read at 37 °C every 6 min until the […] reached the highest plateau.

Data set [14] has as its system MRSA. The data set is described as follows: Transmission electron microscopy (TEM). The format is cell-based, methicillin-resistant Staphylococcus aureus. The note with it: 2 × MIC, 2 h. On the procedure: (§8) TEM microscopy offers convenient access to check the intactness of cell membranes. The cell membranes of MRSA and E. coli were intact.
(§9) An amount of 30 μL of mid-log phase MRSA and E. coli was diluted to 3 mL in TSB medium with 2 × MIC of YW-1, and the mixture was incubated for 2 h. The bacterial pellets were centrifuged at 3000× g rpm for 10 min. For the next step, PBS buffer was used to wash three times. Then, the suspended bacterial samples were dropped on grids and dried in a vacuum oven at 45 °C. TEM images were obtained using a FEI Morgagni 268D TEM, with an Olympus MegaView III CAMERA on the microscope, at 60 kV.

Data set [15] concerns E. coli. The data set is described as follows: Transmission electron microscopy (TEM). The format is cell-based. The note with it: 2 × MIC, 2 h. The procedure: as §8, §9
Data set [16] concerns Human red blood cells. Conditions: red cells of human, 1 h.
Method: as §10, §11
In data set [17] the test system is E. coli. The data set is described as follows: Membrane depolarization study (diSC35 dye). The format is cell-based.
Excerpt: as §3

The subject of data set [18] is E. coli. The data set is described as follows: Outer membrane (OM) permeabilization (NPN uptake). The format is cell-based. The note with it: 1 × MIC, compared with 1% Triton. An excerpt: Next, using E. coli as a microorganism, we evaluated the OM permeabilization of YW-1. In aqueous conditions, 1-N-Phenylnaphthylamine (NPN) is blocked by the cell wall. However, if the OM is permeabilized, and NPN is taken up as a result, the fluorescence intensity will increase, compared to non-treated OM [13].

The test system of data set [19] is MRSA. The data set is described as follows: Time-kill kinetics study. In kind it is cell-based, methicillin-resistant Staphylococcus aureus. The note with it: 4 × MIC and 8 × MIC, TSB medium. On the procedure: as §1, §2

With `CCCCCCCCCCCCCCCC(=O)N[C@@H](CC(C)C)CN(CC(N)=O)C(=O)CCN(C[C@@H](N)CCCCN)C(=O)CCN` [YW-1], the “time to remove bacteria thoroughly” value in data set [1] and in data set [19] was no more than 2 h in each case. In addition, the “increase in MIC (drug resistance)” value in data set [2] was “did not have an obvious change in MIC”. Also, the “fluorescence intensity of diSC35 (membrane depolarization)” value in data set [3] (MRSA treated with different concentrations) and in data set [17] (E. coli treated with different concentrations) was “dose-dependent increases in fluorescence intensity” throughout. For the same molecule, the “fluorescence of diSC35 compared with positive control Triton” value in [3] (MRSA, at a two-fold of MIC or above) is listed as “even more intensive fluorescence than the positive control Triton”; in data set [17] (E. coli, at a two-fold of MIC or above), “even more intensive fluorescence than the positive control Triton”. Also, the “PI staining (compromised membrane)” value in data set [4] and in data set [5] was “red fluorescence was observed under the PI channel” throughout. In addition, in [6], the “MIC, Gram-Positive (+), MRSA” value lay within 1.5 to 3 µg/mL. Besides, in data set [7], the “Selectivity Index (HC50/MICMRSA)” value is recorded as greater than 41.7. Further, the “MIC, Gram-Positive (+), MRSE” value in [8] was 1.5 to 3 µg/mL. For the same molecule, in data set [9], the “MIC, Gram-Positive (+), E.F.” value fell in the range of 1.5 to 3 µg/mL. Further, the “MIC, Gram-Negative (−), E. coli” value in data set [10] fell in the range of 3.0 to 6.0 µg/mL. Further, in data set [11], the “MIC, Gram-Negative (−), K.P.” value lay within 12.5 to 25 µg/mL. The “MIC, Gram-Negative (−), P.A.” value in [12] fell in the range of 6 to 12.5 µg/mL. Moreover, the “inner membrane permeabilization, OD 420 nm intensity” value in data set [13] was “enhanced to a great extent”. In addition, the “membrane intactness by TEM” value in [14] and in data set [15] was “the membranes clearly demonstrated damages” in each case. This molecule also gave a concentration for 50% haemolysis (HC50) in [16] greater than 125 µg/mL. Further, in data set [18], the Outer membrane permeability is on record as 98%.

As usually defined, the HC50 is the concentration that lyses half of the red blood cells. Low readings indicate more damage to red cells, high ones less damage to red cells.
